Experimental data: patent US20230002359A1, “PESTICIDALLY ACTIVE FUSED BICYCLIC HETEROAROMATIC COMPOUNDS” (priority 2019, published 2023)

Columns and labels:
Type in all cases: in vivo
[1] = test system: Plutella xylostella (Diamond Back Moth); assay: Example B4: Plutella xylostella (diamond back moth), artificial diet, eggs, 24-well; details: 192 h, application rate of 200 ppm, 8 days after infestation, eggs, read-out: control in at least one of the two categories (mortality or growth inhibition)
Experimental: 24-well microtiter plates with artificial diet were treated with aqueous test solutions prepared from 10′000 ppm DMSO stock solutions by pipetting. After drying, Plutella eggs were pipetted through a plastic stencil onto a gel blotting paper and the plate was closed with it. The samples were assessed for mortality and growth inhibition in comparison to untreated samples 8 days after infestation.

[2] = test system: Spodoptera littoralis (Egyptian Cotton Leaf Worm); assay: Example B7: Spodoptera littoralis (Egyptian cotton leaf worm), cotton leaf discs sprayed, L1 larvae; details: foliar, 72 h, application rate of 200 ppm, 3 days after infestation, L1 larvae, read-out: control in at least one of the three categories (mortality, anti-feedant effect, or growth inhibition)
How it was run: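 Cotton leaf discs on agar were sprayed with aqueous test solutions made from 10′000 ppm DMSO stocks, dried, then infested with five L1 larvae. Mortality, anti-feeding effect and growth inhibition were scored against untreated discs 3 days after infestation; control means any category exceeds untreated.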

[3] = test system: Chilo suppressalis (Striped Rice Stemborer); assay: Example B3: Chilo suppressalis (striped rice stemborer), artificial diet, L2 larvae; details: 144 h, application rate of 200 ppm, 6 days after infestation, L2 larvae, read-out: control in at least one of the three categories (mortality, anti-feedant effect, or growth inhibition)
How it was run: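 First, artificial diet was treated with aqueous solutions prepared from 10'000 ppm DMSO stocks; second, after drying, L2 larvae (6-8/well) were added; third, effects were assessed at 6 days against untreated controls, counting control when any of three categories was higher.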

[4] = test system: Diabrotica Balteata (Corn Root Worm); assay: Example B1: Diabrotica balteata (corn root worm), maize sprouts sprayed, L2 larvae; details: 96 h, application rate of 200 ppm, 4 days after infestation, L2 larvae, read-out: control in at least one of the two categories (mortality or growth inhibition)
How it was run: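 Larvae at L2 stage, 6 to 10 per well, feed on dried, spray-treated maize sprouts set on agar. Evaluation after 4 days compares mortality and growth inhibition with untreated samples.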

CC(c1nc(Br)nn1-c1ncccn1)N(C)c1ncnc2c(Cl)cc(C(F)(F)F)cc12 (stereo not shown) [P.207, N-[1-(5-bromo-2-pyrimidin-2-yl-1,2,4-triazol-3-yl)ethyl]-8-chloro-N-methyl-6-(trifluoromethyl)quinazolin-4-amine]
≥ 80%: percent control (mortality or growth inhibition) at 200 ppm [1] | percent control (mortality, anti-feedant effect or growth inhibition) at 200 ppm [2] | percent control (mortality, anti-feedant effect or growth inhibition) at 200 ppm [3] | percent control (mortality or growth inhibition) at 200 ppm [4]

C[C@H](Nc1ccnc2c(Br)cc(C(F)(F)F)cc12)c1ncnn1-c1ncccn1 [P.209, 8-bromo-N-[(1S)-1-(2-pyrimidin-2-yl-1,2,4-triazol-3-yl)ethyl]-6-(trifluoromethyl)quinolin-4-amine]
≥ 80%: percent control (mortality or growth inhibition) at 200 ppm [1] | percent control (mortality, anti-feedant effect or growth inhibition) at 200 ppm [2] | percent control (mortality, anti-feedant effect or growth inhibition) at 200 ppm [3] | percent control (mortality or growth inhibition) at 200 ppm [4]

CC(c1ncnn1-c1ccc(C#N)cn1)N(C)c1nccc2c(C(F)(F)F)cc(C(F)(F)F)cc12 (stereo not shown) [P.211, 6-[5-[1-[[5,7-bis(trifluoromethyl)-1-isoquinolyl]-methyl-amino]ethyl]-1,2,4-triazol-1-yl]pyridine-3 carbonitrile]
≥ 80%: percent control (mortality or growth inhibition) at 200 ppm [1] | percent control (mortality, anti-feedant effect or growth inhibition) at 200 ppm [2] | percent control (mortality, anti-feedant effect or growth inhibition) at 200 ppm [3] | percent control (mortality or growth inhibition) at 200 ppm [4]

C[C@@H](c1ncnn1-c1ccc(C#N)cn1)N(C)c1ccnc2c(C(F)(F)F)cc(C(F)(F)F)cc12 [P.214, 6-[5-[(1S)-1-[[6,8-bis(trifluoromethyl)-4-quinolyl]-methyl-amino]ethyl]-1,2,4-triazol-1-yl]pyridine-3-carbonitrile]
≥ 80%: percent control (mortality or growth inhibition) at 200 ppm [1] | percent control (mortality, anti-feedant effect or growth inhibition) at 200 ppm [2] | percent control (mortality, anti-feedant effect or growth inhibition) at 200 ppm [3] | percent control (mortality or growth inhibition) at 200 ppm [4]

C[C@H](Nc1ncnc2c(C(F)(F)F)cc(I)cc12)c1ncnn1-c1ccc(C#N)cn1 [P.218, 6-[5-[(1S)-1-[[6-iodo-8-(trifluoromethyl)quinazolin-4-yl]amino]ethyl]-1,2,4-triazol-1-yl]pyridine-3-carbonitirle]
≥ 80%: percent control (mortality or growth inhibition) at 200 ppm [1] | percent control (mortality, anti-feedant effect or growth inhibition) at 200 ppm [2] | percent control (mortality, anti-feedant effect or growth inhibition) at 200 ppm [3] | percent control (mortality or growth inhibition) at 200 ppm [4]

CC(c1ncnn1-c1ccc(C#N)cn1)N(C)c1c(C#N)cnc2c(C(F)(F)F)cc(C(F)(F)F)cc12 (stereo not shown) [P.224, 4-[1-[2-(5-cyano-2-pyridyl)-1,2,4-tirazol-3-yl]ethyl-methyl-amino]-6,8-bis(trifluoromethy)quino-line-3-carbonitrile]
≥ 80%: percent control (mortality or growth inhibition) at 200 ppm [1] | percent control (mortality, anti-feedant effect or growth inhibition) at 200 ppm [2] | percent control (mortality, anti-feedant effect or growth inhibition) at 200 ppm [3] | percent control (mortality or growth inhibition) at 200 ppm [4]

CC(c1ncnn1-c1ccc(F)cn1)N(C)c1ncnc2c(Cl)cc(C(F)(F)F)cc12 (stereo not shown) [P.232, 8-chloro-N-[1-[2-(5-fluoro-2-pyridyl)-1,2,4-triazol-3-yl]ethyl]-N-methyl-6-(trifluoromethyl)quinazolin-4-amine]
≥ 80%: percent control (mortality or growth inhibition) at 200 ppm [1] | percent control (mortality, anti-feedant effect or growth inhibition) at 200 ppm [2] | percent control (mortality, anti-feedant effect or growth inhibition) at 200 ppm [3] | percent control (mortality or growth inhibition) at 200 ppm [4]

CC(Nc1ncnc2c(C(F)(F)F)cc(Cl)cc12)c1ncnn1-c1ccc(OC(F)F)cn1 (stereo not shown) [P.235, 6-chloro-N-[1-[2-[5-(difluoromethoxy)-2-pyridyl]-1,2,4-triazol-3-yl]ethyl]-8-(trifluoromethyl)quinazolin-4-amine]
≥ 80%: percent control (mortality or growth inhibition) at 200 ppm [1] | percent control (mortality, anti-feedant effect or growth inhibition) at 200 ppm [2] | percent control (mortality, anti-feedant effect or growth inhibition) at 200 ppm [3] | percent control (mortality or growth inhibition) at 200 ppm [4]

CC(c1ncnn1-c1ccc(Br)cn1)N(C)c1ncnc2c(C(F)(F)F)cc(Br)cc12 (stereo not shown) [P.237, 6-bromo-N-[1-[2-(5-bromo-2-pyridyl)-1,2,4-triazol-3-yl]ethyl]-N-methyl-8-(trifluoromethyl)quinazolin-4-amine]
≥ 80%: percent control (mortality or growth inhibition) at 200 ppm [1] | percent control (mortality, anti-feedant effect or growth inhibition) at 200 ppm [2] | percent control (mortality, anti-feedant effect or growth inhibition) at 200 ppm [3] | percent control (mortality or growth inhibition) at 200 ppm [4]

CC(c1ncnn1-c1ccc(Br)cn1)N(C)c1ncnc2c(C(F)(F)F)cc(Cl)cc12 (stereo not shown) [P.238, N-[1-[2-(5-bromo-2-pyridyl)-1,2,4-triazol-3-yl]ethyl]-6-chloro-N-methyl-8-(trifluoromethyl)quinazolin-4-amine]
≥ 80%: percent control (mortality or growth inhibition) at 200 ppm [1] | percent control (mortality, anti-feedant effect or growth inhibition) at 200 ppm [2] | percent control (mortality, anti-feedant effect or growth inhibition) at 200 ppm [3] | percent control (mortality or growth inhibition) at 200 ppm [4]

CC(c1ncnn1-c1ccc(Br)cn1)N(C)c1ncnc2c(Br)cc(C(F)(F)F)cc12 (stereo not shown) [P.239, 8-bromo-N-[1-[2-(5-bromo-2-pyridyl)-1,2,4-triazol-3-yl]ethyl]-N-methyl-6-(trifluoromethyl)quinazolin-4-amine]
≥ 80%: percent control (mortality or growth inhibition) at 200 ppm [1] | percent control (mortality, anti-feedant effect or growth inhibition) at 200 ppm [2] | percent control (mortality, anti-feedant effect or growth inhibition) at 200 ppm [3] | percent control (mortality or growth inhibition) at 200 ppm [4]

CC(c1ncnn1-c1ccc(Br)cn1)N(C)c1ncnc2c(Cl)cc(C(F)(F)F)cc12 (stereo not shown) [P.240, N-[1-[2-(5-bromo-2-pyridyl)-1,2,4-triazol-3-yl]ethyl]-8-chloro-N-methyl-6-(trifluoromethyl)quinazolin-4-amine]
≥ 80%: percent control (mortality or growth inhibition) at 200 ppm [1] | percent control (mortality, anti-feedant effect or growth inhibition) at 200 ppm [2] | percent control (mortality, anti-feedant effect or growth inhibition) at 200 ppm [3] | percent control (mortality or growth inhibition) at 200 ppm [4]

CC(c1ncnn1-c1ccc(Br)cn1)N(C)c1ncnc2c(C(F)(F)F)cc(C(F)(F)F)cc12 (stereo not shown) [P.241, N-[1-[2-(5-bromo-2-pyridyl)-1,2,4-triazol-3-yl]ethyl]-N-methyl-6,8-bis(trifluoromethyl)quina-zolin-4-amine]
≥ 80%: percent control (mortality or growth inhibition) at 200 ppm [1] | percent control (mortality, anti-feedant effect or growth inhibition) at 200 ppm [2] | percent control (mortality, anti-feedant effect or growth inhibition) at 200 ppm [3] | percent control (mortality or growth inhibition) at 200 ppm [4]

CC(Nc1ncnc2c(OC(F)F)cc(Br)cc12)c1ncnn1-c1ccc(C#N)cn1 (stereo not shown) [P.244, 6-[5-[1-[[6-bromo-8-(difluoromethoxy)quinazo-lin-4-yl]amino]ethyl]-1,2,4-triazol-1-yl]pyridine-3-carbonitrile]
≥ 80%: percent control (mortality or growth inhibition) at 200 ppm [1] | percent control (mortality, anti-feedant effect or growth inhibition) at 200 ppm [2] | percent control (mortality, anti-feedant effect or growth inhibition) at 200 ppm [3] | percent control (mortality or growth inhibition) at 200 ppm [4]

CC(Nc1ncnc2c(OC(F)(F)F)cc(Br)cc12)c1ncnn1-c1ccc(C#N)cn1 (stereo not shown) [P.247, 6-[5-[1-[[6-bromo-8-(trifluoromethoxy)quinazo-lin-4-yl]amino]ethyl]-1,2,4-triazol-1-yl]pyridine-3-carbonitrile]
≥ 80%: percent control (mortality or growth inhibition) at 200 ppm [1] | percent control (mortality, anti-feedant effect or growth inhibition) at 200 ppm [2] | percent control (mortality, anti-feedant effect or growth inhibition) at 200 ppm [3] | percent control (mortality or growth inhibition) at 200 ppm [4]

CC(c1nccnc1-c1ncccn1)N(C)c1ccnc2c(C(F)(F)F)cc(C(F)(F)F)cc12 (stereo not shown) [P.249, N-methyl-N-[1-(3-pyrimidin-2-ylpyrazin-2-yl)ethyl]-6,8-bis(trifluoromethyl)quino-lin-4-amine]
≥ 80%: percent control (mortality or growth inhibition) at 200 ppm [1] | percent control (mortality, anti-feedant effect or growth inhibition) at 200 ppm [2] | percent control (mortality, anti-feedant effect or growth inhibition) at 200 ppm [3] | percent control (mortality or growth inhibition) at 200 ppm [4]

CC(c1ncnn1-c1ncccn1)N(C)c1nccc2c(C(F)(F)F)cc(C(F)(F)F)cc12 (stereo not shown) [P.250, N-methyl-N-[1-(2-pyrimidin-2-yl-1,2,4-triazol-3-yl)ethyl]-5,7-bis(trifluoromethyl)isoquino-lin-1-amine]
≥ 80%: percent control (mortality or growth inhibition) at 200 ppm [1] | percent control (mortality, anti-feedant effect or growth inhibition) at 200 ppm [2] | percent control (mortality, anti-feedant effect or growth inhibition) at 200 ppm [3] | percent control (mortality or growth inhibition) at 200 ppm [4]

C[C@H](Nc1ccnc2c(C(F)(F)F)cc(C(F)(F)F)cc12)c1ncnn1-c1ccc(C#N)cn1 [P.251, 6-[5-[(1S)-1-[[6,8-bis(trifluoromethyl)-4-quinolyl]amino]ethyl]-1,2,4-triazol-1-yl]pyridine-3-carbonitrile]
≥ 80%: percent control (mortality or growth inhibition) at 200 ppm [1] | percent control (mortality, anti-feedant effect or growth inhibition) at 200 ppm [2] | percent control (mortality, anti-feedant effect or growth inhibition) at 200 ppm [3] | percent control (mortality or growth inhibition) at 200 ppm [4]

C[C@H](Nc1ccnc2c(C(F)(F)F)cc(Br)cc12)c1ncnn1-c1ccc(C#N)cn1 [P.252, 6-[5-[(1S)-1-[[6-bromo-8-(trifluoromethyl)-4-quinolyl]amino]ethyl]-1,2,4-triazol-1-yl]pyridine-3-carbonitrile]
≥ 80%: percent control (mortality or growth inhibition) at 200 ppm [1] | percent control (mortality, anti-feedant effect or growth inhibition) at 200 ppm [2] | percent control (mortality, anti-feedant effect or growth inhibition) at 200 ppm [3] | percent control (mortality or growth inhibition) at 200 ppm [4]
